Experimental data reported in PubChem BioAssay AID1963825 (Molecular Pharmacology Branch, DTP, NCI, 2024).
pIC50: −log10 of the molar value.

Experiment: Anticancer human tumor 997537-175-T-J1-PDC patient-derived colon adenocarcinoma cell line growth inhibition [POLQ]
Details: 997537-175-T-J1-PDC complex spheroid viability, combination with POLQ inhibitors; for pIC50: curve of first compound; for viability, T/C: stronger effect = lower value
In short: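 Patient-derived tumour cells were co-cultured with HUVEC and mesenchymal stem cells as multicellular spheroids at 37 °C. They were treated with POLQ inhibitors (novobiocin, ART-558, RP6685) alone or combined with other agents. Top concentrations were at or near clinical Cmax (otherwise 10 microM; SN-38 at 1 microM), decreasing in half-log steps.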

[1] = second compound 0.0316 µM, first compound 0.0316 µM
[2] = second compound 0.0316 µM, first compound 0.1 µM
[3] = second compound 0.0316 µM, first compound 0.316 µM
[4] = second compound 0.0316 µM, first compound 1 µM
[5] = second compound 0.0316 µM, first compound 3.16 µM
[6] = second compound 0.0316 µM, first compound 10 µM
[7] = second compound 0.1 µM, first compound 0.0316 µM
[8] = second compound 0.1 µM, first compound 0.1 µM
[9] = second compound 0.1 µM, first compound 0.316 µM
[10] = second compound 0.1 µM, first compound 1 µM
[11] = second compound 0.1 µM, first compound 3.16 µM
[12] = second compound 0.1 µM, first compound 10 µM
[13] = second compound 0.316 µM, first compound 0.0316 µM
[14] = second compound 0.316 µM, first compound 0.1 µM
[15] = second compound 0.316 µM, first compound 0.316 µM
[16] = second compound 0.316 µM, first compound 1 µM
[17] = second compound 0.316 µM, first compound 3.16 µM
[18] = second compound 0.316 µM, first compound 10 µM
[19] = second compound 1 µM, first compound 0.0316 µM
[20] = second compound 1 µM, first compound 0.1 µM
[21] = second compound 1 µM, first compound 0.316 µM
[22] = second compound 1 µM, first compound 1 µM
[23] = second compound 1 µM, first compound 3.16 µM
[24] = second compound 1 µM, first compound 10 µM
[25] = second compound 3.16 µM, first compound 0.0316 µM
[26] = second compound 3.16 µM, first compound 0.1 µM
[27] = second compound 3.16 µM, first compound 0.316 µM
[28] = second compound 3.16 µM, first compound 1 µM
[29] = second compound 3.16 µM, first compound 3.16 µM
[30] = second compound 3.16 µM, first compound 10 µM
[31] = second compound 10 µM, first compound 0.0316 µM
[32] = second compound 10 µM, first compound 0.1 µM
[33] = second compound 10 µM, first compound 0.316 µM
[34] = second compound 10 µM, first compound 1 µM
[35] = second compound 10 µM, first compound 3.16 µM
[36] = second compound 10 µM, first compound 10 µM
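Note: luminescence signal used as a surrogate for viable cells; spheroids exposed to drugs for seven days before readout.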

O=C(c1cc(Cc2n[nH]c(=O)c3ccccc23)ccc1F)N1CCN(C(=O)C2CC2)CC1 + Nc1ccc(C#CCN(C(=O)Cc2ncc(C(F)(F)F)cc2C(F)(F)F)c2ccc(F)cc2)nn1
pIC50 (second compound 0.0316 µM): < 5.00
pIC50 (second compound 0.1 µM): < 5.00
pIC50 (second compound 0.316 µM): < 5.00
pIC50 (second compound 1 µM): < 5.00
pIC50 (second compound 3.16 µM): < 5.00
pIC50 (second compound 10 µM): < 5.00
viability, T/C [1]: 108%
viability, T/C [2]: 104%
viability, T/C [3]: 100%
viability, T/C [4]: 99.9%
viability, T/C [5]: 95.3%
viability, T/C [6]: 82%
viability, T/C [7]: 108%
viability, T/C [8]: 103%
viability, T/C [9]: 94.4%
viability, T/C [10]: 93.7%
viability, T/C [11]: 84.6%
viability, T/C [12]: 94.8%
viability, T/C [13]: 106%
viability, T/C [14]: 111%
viability, T/C [15]: 104%
viability, T/C [16]: 98.3%
viability, T/C [17]: 93.5%
viability, T/C [18]: 98.9%
viability, T/C [19]: 104%
viability, T/C [20]: 98.2%
viability, T/C [21]: 103%
viability, T/C [22]: 104%
viability, T/C [23]: 93.2%
viability, T/C [24]: 99.3%
viability, T/C [25]: 96.7%
viability, T/C [26]: 94.4%
viability, T/C [27]: 98.8%
viability, T/C [28]: 90.1%
viability, T/C [29]: 98.5%
viability, T/C [30]: 95.3%
viability, T/C [31]: 108%
viability, T/C [32]: 103%
viability, T/C [33]: 97.3%
viability, T/C [34]: 91.3%
viability, T/C [35]: 112%
viability, T/C [36]: 98.9%

C#Cc1c(F)ccc2cc(O)cc(-c3ncc4c(N5CC6CCC(C5)N6)nc(OCC56CCCN5CC(F)C6)nc4c3F)c12 (centres undefined) + Cc1cccc(N(C)C(=O)C2C(O)CCN2c2nc(C)cc(C(F)(F)F)c2C#N)c1
pIC50 (second compound 0.0316 µM): < 5.00
pIC50 (second compound 0.1 µM): < 5.00
pIC50 (second compound 0.316 µM): < 5.00
pIC50 (second compound 1 µM): < 5.00
pIC50 (second compound 3.16 µM): < 5.00
pIC50 (second compound 10 µM): < 5.00
viability, T/C [1]: 95.2%
viability, T/C [2]: 106%
viability, T/C [3]: 89.2%
viability, T/C [4]: 107%
viability, T/C [5]: 108%
viability, T/C [6]: 109%
viability, T/C [7]: 99.2%
viability, T/C [8]: 102%
viability, T/C [9]: 98.2%
viability, T/C [10]: 104%
viability, T/C [11]: 104%
viability, T/C [12]: 108%
viability, T/C [13]: 106%
viability, T/C [14]: 106%
viability, T/C [15]: 91.6%
viability, T/C [16]: 91.7%
viability, T/C [17]: 121%
viability, T/C [18]: 105%
viability, T/C [19]: 109%
viability, T/C [20]: 107%
viability, T/C [21]: 111%
viability, T/C [22]: 100%
viability, T/C [23]: 98.5%
viability, T/C [24]: 102%
viability, T/C [25]: 106%
viability, T/C [26]: 83.5%
viability, T/C [27]: 101%
viability, T/C [28]: 112%
viability, T/C [29]: 101%
viability, T/C [30]: 104%
viability, T/C [31]: 99.8%
viability, T/C [32]: 88.6%
viability, T/C [33]: 101%
viability, T/C [34]: 119%
viability, T/C [35]: 94.1%
viability, T/C [36]: 89%
